# Experimental data published in ChEMBL document CHEMBL1201862, “PubChem BioAssay data set” (2004).
# Activity calls are given as the source filed them. Unless noted, no cut-off for these calls is given here.
# What was measured:
# [1] = target: 1-phosphatidylinositol 4,5-bisphosphate phosphodiesterase gamma-1 (Homo sapiens, UniProt P19174); experiment: Counterscreen for inhibitors of phospholipase C isozymes (PLC-B3): Fluorescence-based biochemical high throughput dose response assay to identify inhibitors of phospholipase C isozymes (PLC-gamma1).
# [2] = target: 1-phosphatidylinositol 4,5-bisphosphate phosphodiesterase beta-3 (Homo sapiens, UniProt Q01970); experiment: Fluorescence-based biochemical high throughput dose response assay to identify inhibitors of phospholipase C isozymes (PLC-B3).
# [3] = target: fMet-Leu-Phe receptor (Homo sapiens, UniProt P21462); experiment: FPR ligands, dose response (AID 519); format: functional
# [4] = Artemis endonuclease inhibitor potency, dose response, biochemical, fluorescence intensity (AID 720701); format: functional;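 note: Artemis endonuclease enzyme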
# [5] = tested on: BJ; experiment: cells; format: functional, cell-based; settings: Homo sapiens
# [6] = tested on: BJ; experiment: cytotoxicity toward Ras-transformed BJeLR fibroblasts, dose response, cell-based, alamar blue fluorescence, cherrypicked samples (AID 2631); format: functional; settings: Homo sapiens;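 note: confirmatory dose-response assay in RAS-dependent BJ fibroblasts engineered with TERT, LT and ST, with cytotoxicity read by fluorescence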
# [7] = cytotoxicity in OV-90 ovarian cancer cells, dose response, PAX8 inhibitor project, cell-based, plate reader, dry powder, SA8 (AID 743149); format: functional
# [8] = cytotoxicity toward DRD oncogenic fibroblasts, dose response, cell-based, non-viral oncogenic, luminescence (AID 1934); format: functional; settings: Homo sapiens
# [9] = target: Paired box protein Pax-8 (Homo sapiens, UniProt Q06710); experiment: inhibitors of PAX8-driven TPO luciferase reporter, dose response, RMG-I cells, cherry-pick (AID 687027); format: functional, cell-based;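 note: luciferase reporter driven by Pax8 target thyroperoxidase promoter measured by SteadyGlo luminescence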
# [10] = tested on: BJ; experiment: cytotoxicity toward BJ-TERT-LT-ST fibroblasts, dose response, cell-based, RAS-independent, luminescence (AID 1935); format: functional; settings: Homo sapiens;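 note: BJ fibroblasts immortalized with TERT plus LT and ST oncogenes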
# [11] = IOSE-T80 ovarian epithelial cell cytotoxicity, dose response, cytotoxicity control for PAX8 inhibitor project, plate reader, dry powder samples (AID 743045); format: functional, cell-based
# [12] = IGROV1 ovarian cancer cell cytotoxicity, dose response, PAX8 inhibitor project, plate reader, dry powder samples (AID 743043); format: functional, cell-based; settings: IGROV-1
# [13] = Shn3 3'UTR reporter inhibitors, dose response, cell-based, Clone20 osteoblasts, firefly luciferase, cherry-picked (AID 624132); format: functional;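 note: firefly luciferase luminescence from reporter carrying the Shn3 3'UTR in osteoblasts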
# [14] = target: T1, Heat shock factor protein 1 (Mus musculus, UniProt P38532); experiment: inhibition of MG132-induced HSE-luciferase signal, confirmation, cell-based, NIH3T3, luminescence, dose retest (AID 2382); format: functional;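 note: NIH3T3 fibroblasts with HSF1-driven luciferase reporter stressed by proteasome inhibitor MG132; luminescence from HSF1-driven luciferase expression after 8 hours of MG132 stress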
# T1 sequence (P38532 whole entry): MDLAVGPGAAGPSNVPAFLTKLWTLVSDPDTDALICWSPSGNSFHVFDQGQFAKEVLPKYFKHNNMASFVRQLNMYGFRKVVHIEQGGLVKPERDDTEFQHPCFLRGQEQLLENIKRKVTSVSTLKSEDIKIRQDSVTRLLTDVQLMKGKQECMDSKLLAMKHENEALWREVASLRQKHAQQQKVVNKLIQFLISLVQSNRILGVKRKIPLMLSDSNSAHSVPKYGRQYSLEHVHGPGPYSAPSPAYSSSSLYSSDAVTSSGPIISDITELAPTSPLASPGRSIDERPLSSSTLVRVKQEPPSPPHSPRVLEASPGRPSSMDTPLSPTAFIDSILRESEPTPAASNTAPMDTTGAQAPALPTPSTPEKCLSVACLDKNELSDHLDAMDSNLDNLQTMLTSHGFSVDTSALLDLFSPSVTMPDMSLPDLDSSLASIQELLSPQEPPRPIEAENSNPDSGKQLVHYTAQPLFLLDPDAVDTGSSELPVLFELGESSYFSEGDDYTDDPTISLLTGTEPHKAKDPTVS
# [15] = tested on: BJ; experiment: cytotoxicity toward BJ-TERT fibroblasts, dose response, cell-based, RAS-independent, luminescence (AID 1933); format: functional; settings: Homo sapiens
# [16] = control 3'UTR Renilla luciferase suppression, dose response, counter-screen for Shn3 inhibitor project, cell-based, Clone20-Shn3RL, cherry-picked (AID 624133); format: functional
# [17] = PAX2 cell-based inhibition, dose response, selectivity assay for PAX8 inhibitor project, plate reader, dry powder samples (AID 743048); format: functional;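 note: HEK293 cells carrying a WT1 promoter luciferase reporter driven by expressed Pax2; potency is for inhibition of Pax2 driven reporter signal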
# [18] = cytotoxicity dependent on PAX8, dose response, cell-based, plate reader, dry powder (AID 743049); format: functional
# [19] = cytotoxicity in OVCAR4 cells, dose response, cytotoxicity control for PAX8 inhibitor project, cell-based, plate reader, dry powder, SA11 (AID 743150); format: functional; settings: OVCAR-4
# [20] = cytotoxicity in COV434 cells, dose response, cytotoxicity control for PAX8 inhibitor project, cell-based, plate reader, dry powder, SA7 (AID 743145); format: functional
# [21] = PAX5 activity inhibitors, dose response, selectivity assay for PAX8 inhibitor project, cell-based, plate reader, dry powder samples (AID 743047); format: functional;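 note: HEK293 cells carrying a Pax5 driven CD19 promoter luciferase reporter; potency of inhibitors that lower reporter luminescence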
# [22] = NIH:OVCAR-3 ovarian cancer cell cytotoxicity, dose response, PAX8 inhibitor project, plate reader, dry powder samples (AID 743044); format: functional, cell-based
# [23] = cytotoxicity in HEK-293T cells, dose response, cytotoxicity control for TCR NF-kB inhibitor project, luminescence, T-cell screen hits (AID 489026); format: functional, cell-based;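 note: cells exposed to compound about 14 hours before the viability readout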
# [24] = cytotoxicity in COV362 ovarian cancer cells, dose response, cytotoxicity control for PAX8 inhibitor project, cell-based, plate reader, dry powder, SA12 (AID 743144); format: functional
# [25] = A2780 ovarian cancer cell cytotoxicity, dose response, cytotoxicity control, plate reader, dry powder samples (AID 743046); format: functional, cell-based
# [26] = inhibitors of PGC1a acetylation in cells, dose response, cell-based, cherry-picked samples (AID 720514); format: functional;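 note: potency may reflect raised or lowered acetylation signal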
# [27] = target: T2, Oxysterols receptor LXR-beta (Homo sapiens, UniProt P55055); experiment: LXR agonists, Gal4 luciferase reporter, dose response, counter-screen for ssDAF-12 agonist project, cell-based, luminescence, HEK293, S. stercoralis campaign (AID 720737); format: functional; settings: read-out: IC50 (the source's name)
# T2 sequence (P55055 whole entry): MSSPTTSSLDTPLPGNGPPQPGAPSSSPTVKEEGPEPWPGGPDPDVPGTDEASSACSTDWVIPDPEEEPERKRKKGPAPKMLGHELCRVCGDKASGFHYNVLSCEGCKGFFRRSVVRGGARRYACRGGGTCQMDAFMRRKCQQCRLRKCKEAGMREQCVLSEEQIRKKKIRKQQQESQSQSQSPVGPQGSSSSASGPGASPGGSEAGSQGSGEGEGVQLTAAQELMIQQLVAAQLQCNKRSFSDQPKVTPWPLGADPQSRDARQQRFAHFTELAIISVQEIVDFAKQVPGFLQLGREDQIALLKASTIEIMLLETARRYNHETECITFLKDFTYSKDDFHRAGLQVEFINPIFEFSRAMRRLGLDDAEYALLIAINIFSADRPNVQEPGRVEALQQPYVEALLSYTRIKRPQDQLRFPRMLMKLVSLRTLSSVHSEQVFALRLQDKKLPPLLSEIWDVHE
# [28] = Luminescence-based cell-based high throughput dose response assay to identify activators of the DAF-12 from the parasite S. stercoralis (ssDAF-12).; format: functional
# [29] = cytotoxicity in HEK293 cells, dose response, cytotoxicity control, cell-based, cherry-picked samples (AID 1053185); format: functional
# [30] = intracellular Trypanosoma cruzi inhibitors in host cells – cell-based, plate reader, cherry-pick samples, set 3, dose response (AID 651818); format: functional;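 note: compounds incubated with infected cells for about four days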
# [31] = cytotoxicity in A549 cells, dose response, cytotoxicity control, cell-based, cherry-picked samples (AID 1053184); format: functional
# [32] = cytotoxicity in HepG2 cells, dose response, cytotoxicity control, cell-based, cherry-picked samples (AID 1053183); format: functional
# [33] = HUVEC endothelial cell viability loss, dose response, cytotoxicity control for HRAS target identification, CellTiter-Glo ATP luminescence, 8/24/48 h, dry powder (AID 720604); format: functional, cell-based
# [34] = U-251 glioblastoma cell viability loss, late-stage follow-up, mechanism study for HRAS target identification, CellTiter-Glo ATP luminescence, several timepoints, dry powder (AID 720616); format: functional, cell-based
# [35] = SNB-19 glioblastoma cell viability loss, dose response, HRAS target identification, Alamar Blue fluorescence, 8/24/48 h, dry powder (AID 720600); format: functional, cell-based
# [36] = SNB-19 glioblastoma cell viability over time, late-stage follow-up, mechanism study for HRAS target identification, CellTiter-Glo ATP luminescence, 8-48 h, dry powder (AID 720611); format: functional, cell-based
# [37] = HT-29 colorectal cell cytotoxicity over time, dose response, HRas target identification project, CellTiter-Glo, multiple timepoints, dry powder (AID 720598); format: functional, cell-based
# [38] = HeLa cell viability over time, late-stage follow-up, mechanism study for HRAS target identification, CellTiter-Glo ATP luminescence, 8-48 h, dry powder (AID 720609); format: functional, cell-based
# [39] = SR lymphoma cell viability over time, late-stage follow-up, mechanism study for HRAS target identification, CellTiter-Glo ATP luminescence, 8-48 h, dry powder (AID 720608); format: functional, cell-based
# [40] = C2C12 myoblast ATP-based viability loss, dose response, cytotoxicity control for HRAS target identification, cell-based, CellTiter-Glo ATP luminescence, 8/24/48 h, dry powder (AID 720603); format: functional
# [41] = CCRF-CEM leukemia cell viability loss, dose response, HRAS target identification, CellTiter-Glo ATP luminescence, 8/24/48 h, dry powder (AID 720607); format: functional, cell-based
# [42] = SNB-75 astrocytoma cell viability loss, late-stage follow-up, mechanism study for HRAS target identification, CellTiter-Glo ATP luminescence, several timepoints, dry powder (AID 720624); format: functional, cell-based
# [43] = LOX IMVI melanoma cell viability loss, dose response, HRAS target identification, CellTiter-Glo ATP luminescence, 8/24/48 h, dry powder (AID 720602); format: functional, cell-based
# [44] = Late stage assay provider results from the probe development effort to identify inhibitors of the Plasmodium falciparum M18 Aspartyl Aminopeptidase (M18AAP): radiolabel-based cell-based dose response assay to identify compounds that inhibit P. falciparum growth in RBCs, Set 2..; format: functional
# [45] = target: Kallikrein-7 (Homo sapiens, UniProt P49862); experiment: Fluorescence Intensity-based biochemical primary high throughput dose response assay to identify activators of kallikrein-7 (K7) zymogen.
# [46] = target: Potassium channel subfamily K member 3 (Homo sapiens, UniProt O14649); experiment: TASK1 (KCNK3) potassium channel inhibitors, SAR follow-up, CHO cells, FluxOR thallium flux (AID 652212); format: functional
# Sequence of Potassium channel subfamily K member 3 (O14649 whole entry): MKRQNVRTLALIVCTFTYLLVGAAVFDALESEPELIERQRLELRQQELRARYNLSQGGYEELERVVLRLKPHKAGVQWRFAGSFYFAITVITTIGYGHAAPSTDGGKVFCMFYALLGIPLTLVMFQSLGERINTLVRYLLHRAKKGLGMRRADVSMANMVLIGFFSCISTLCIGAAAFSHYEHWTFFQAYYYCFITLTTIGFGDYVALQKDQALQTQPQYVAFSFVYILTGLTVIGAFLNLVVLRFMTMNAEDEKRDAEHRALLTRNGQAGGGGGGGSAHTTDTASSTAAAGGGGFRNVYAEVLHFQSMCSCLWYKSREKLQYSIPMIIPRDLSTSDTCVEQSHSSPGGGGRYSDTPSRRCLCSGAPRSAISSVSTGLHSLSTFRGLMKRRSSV
# Sequence of 1-phosphatidylinositol 4,5-bisphosphate phosphodiesterase beta-3 (Q01970 whole entry): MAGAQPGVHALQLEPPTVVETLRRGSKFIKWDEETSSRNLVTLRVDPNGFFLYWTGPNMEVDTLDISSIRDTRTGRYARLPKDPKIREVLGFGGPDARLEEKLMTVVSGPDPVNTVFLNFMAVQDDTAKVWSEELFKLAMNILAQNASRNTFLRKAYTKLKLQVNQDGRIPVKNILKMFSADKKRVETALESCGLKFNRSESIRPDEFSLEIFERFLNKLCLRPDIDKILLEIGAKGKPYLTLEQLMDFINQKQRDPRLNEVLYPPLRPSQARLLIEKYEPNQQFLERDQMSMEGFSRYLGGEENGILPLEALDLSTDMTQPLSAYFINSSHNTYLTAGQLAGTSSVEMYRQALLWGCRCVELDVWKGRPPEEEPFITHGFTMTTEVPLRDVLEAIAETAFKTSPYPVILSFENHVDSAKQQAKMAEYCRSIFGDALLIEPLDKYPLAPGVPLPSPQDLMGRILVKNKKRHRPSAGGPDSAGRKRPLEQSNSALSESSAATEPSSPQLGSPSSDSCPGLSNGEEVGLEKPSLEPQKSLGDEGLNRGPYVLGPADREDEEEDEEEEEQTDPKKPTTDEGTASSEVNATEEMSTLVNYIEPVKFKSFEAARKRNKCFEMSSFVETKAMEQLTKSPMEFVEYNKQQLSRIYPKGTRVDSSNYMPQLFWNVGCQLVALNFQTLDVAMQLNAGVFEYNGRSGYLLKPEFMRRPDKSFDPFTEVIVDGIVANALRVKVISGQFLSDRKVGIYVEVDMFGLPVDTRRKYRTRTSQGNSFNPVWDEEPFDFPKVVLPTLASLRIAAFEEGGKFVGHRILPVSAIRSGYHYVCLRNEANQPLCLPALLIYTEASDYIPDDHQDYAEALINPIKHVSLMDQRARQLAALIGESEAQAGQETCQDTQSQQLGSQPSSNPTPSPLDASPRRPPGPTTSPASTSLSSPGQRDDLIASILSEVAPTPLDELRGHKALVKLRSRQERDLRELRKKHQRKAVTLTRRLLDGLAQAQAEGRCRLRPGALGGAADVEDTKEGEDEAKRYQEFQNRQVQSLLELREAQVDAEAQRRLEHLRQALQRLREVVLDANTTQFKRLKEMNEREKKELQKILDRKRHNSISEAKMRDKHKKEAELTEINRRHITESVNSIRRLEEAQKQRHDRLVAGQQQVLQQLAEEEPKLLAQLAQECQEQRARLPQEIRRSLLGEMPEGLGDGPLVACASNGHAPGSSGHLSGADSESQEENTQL
# Sequence of 1-phosphatidylinositol 4,5-bisphosphate phosphodiesterase gamma-1 (P19174 whole entry): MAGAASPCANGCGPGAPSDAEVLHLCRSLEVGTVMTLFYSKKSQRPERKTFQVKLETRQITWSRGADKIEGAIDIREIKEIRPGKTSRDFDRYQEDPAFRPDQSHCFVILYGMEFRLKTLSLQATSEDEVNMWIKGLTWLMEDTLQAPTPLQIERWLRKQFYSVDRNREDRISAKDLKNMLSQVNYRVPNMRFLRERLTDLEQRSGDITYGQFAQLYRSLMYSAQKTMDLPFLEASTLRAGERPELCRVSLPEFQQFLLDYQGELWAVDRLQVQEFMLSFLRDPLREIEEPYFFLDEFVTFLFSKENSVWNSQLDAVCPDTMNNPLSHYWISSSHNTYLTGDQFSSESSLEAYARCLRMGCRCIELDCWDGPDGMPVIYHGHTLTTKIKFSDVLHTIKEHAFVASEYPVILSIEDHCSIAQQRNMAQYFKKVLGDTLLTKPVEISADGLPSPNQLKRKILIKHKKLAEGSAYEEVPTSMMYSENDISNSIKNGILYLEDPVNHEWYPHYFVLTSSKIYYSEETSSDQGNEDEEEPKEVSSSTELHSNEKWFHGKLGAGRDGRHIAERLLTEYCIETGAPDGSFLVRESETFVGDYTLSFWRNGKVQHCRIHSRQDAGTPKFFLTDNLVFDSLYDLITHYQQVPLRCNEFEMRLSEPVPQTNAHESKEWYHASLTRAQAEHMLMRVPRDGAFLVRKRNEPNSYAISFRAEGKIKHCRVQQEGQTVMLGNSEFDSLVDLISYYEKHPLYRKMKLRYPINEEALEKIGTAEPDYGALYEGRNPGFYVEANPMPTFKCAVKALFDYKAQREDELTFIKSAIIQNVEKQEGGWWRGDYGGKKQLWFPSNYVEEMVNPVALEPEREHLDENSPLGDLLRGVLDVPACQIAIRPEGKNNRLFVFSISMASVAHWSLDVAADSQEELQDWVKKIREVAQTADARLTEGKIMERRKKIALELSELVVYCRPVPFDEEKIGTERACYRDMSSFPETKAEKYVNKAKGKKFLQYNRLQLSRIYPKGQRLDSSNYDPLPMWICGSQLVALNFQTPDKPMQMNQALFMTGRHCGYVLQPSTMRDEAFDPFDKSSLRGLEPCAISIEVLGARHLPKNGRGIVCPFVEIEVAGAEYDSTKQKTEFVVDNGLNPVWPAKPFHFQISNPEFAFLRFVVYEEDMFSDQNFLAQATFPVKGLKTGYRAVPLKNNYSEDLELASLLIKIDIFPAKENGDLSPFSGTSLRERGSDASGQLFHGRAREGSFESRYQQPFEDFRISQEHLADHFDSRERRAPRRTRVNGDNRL
# Sequence of Kallikrein-7 (P49862 whole entry): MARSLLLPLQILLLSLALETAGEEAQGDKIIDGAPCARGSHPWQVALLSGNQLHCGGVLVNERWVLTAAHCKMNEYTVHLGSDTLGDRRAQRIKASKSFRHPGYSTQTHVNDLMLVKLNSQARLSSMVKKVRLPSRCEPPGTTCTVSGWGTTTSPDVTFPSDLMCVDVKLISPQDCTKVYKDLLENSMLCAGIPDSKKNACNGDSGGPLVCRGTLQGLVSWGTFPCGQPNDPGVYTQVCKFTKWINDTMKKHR
# Sequence of fMet-Leu-Phe receptor (P21462 whole entry): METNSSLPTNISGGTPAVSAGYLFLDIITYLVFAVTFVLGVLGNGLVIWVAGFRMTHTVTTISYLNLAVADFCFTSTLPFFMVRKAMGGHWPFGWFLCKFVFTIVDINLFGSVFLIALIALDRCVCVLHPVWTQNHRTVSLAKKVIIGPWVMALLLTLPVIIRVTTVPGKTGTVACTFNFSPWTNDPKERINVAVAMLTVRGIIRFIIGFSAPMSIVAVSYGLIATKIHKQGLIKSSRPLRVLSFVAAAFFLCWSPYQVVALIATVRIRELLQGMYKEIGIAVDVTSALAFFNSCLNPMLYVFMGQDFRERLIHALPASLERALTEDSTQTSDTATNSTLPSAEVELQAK
# Sequence of Paired box protein Pax-8 (Q06710 whole entry): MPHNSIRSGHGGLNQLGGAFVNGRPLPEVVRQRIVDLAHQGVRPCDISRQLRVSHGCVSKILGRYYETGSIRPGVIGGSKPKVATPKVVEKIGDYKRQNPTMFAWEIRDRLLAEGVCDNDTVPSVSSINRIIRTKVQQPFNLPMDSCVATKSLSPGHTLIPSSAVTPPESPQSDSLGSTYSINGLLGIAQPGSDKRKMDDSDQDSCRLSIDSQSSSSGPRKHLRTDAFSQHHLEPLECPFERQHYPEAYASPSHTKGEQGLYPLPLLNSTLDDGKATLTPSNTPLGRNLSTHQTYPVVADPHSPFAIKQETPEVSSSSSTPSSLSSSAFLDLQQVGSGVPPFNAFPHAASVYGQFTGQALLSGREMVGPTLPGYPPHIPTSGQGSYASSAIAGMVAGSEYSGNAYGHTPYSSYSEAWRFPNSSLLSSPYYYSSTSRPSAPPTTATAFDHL
compound,measurement,setting,value
CCCCn1c(=O)n(CC(=O)Nc2ccc(OC)c(Cl)c2)c(=O)c2c1nc(CO)n2CCC,IC50,[1],> 123000 nM (inactive)
same,IC50,[2],> 123000 nM (inactive)
CCOc1ccc(C(=O)C2=C(O)C(=O)N(CC3CCCO3)C2c2ccco2)cc1 (stereo unspecified),Ki,[3],32000 nM (inactive)
Cc1cccc(NC(=O)c2sc3nc4c(c(-c5cccs5)c3c2N)CN(C)CC4)c1,IC50,[4],> 20000 nM (inactive)
COc1ccc(C)cc1NS(=O)(=O)c1ccc(-c2cnc(C3CC3)o2)cc1,EC50,[5],990 nM (active)
same,EC50,[6],< 104 nM (active)
same,AC50,[7],612 nM (active)
same,EC50,[8],388 nM (active)
same,AC50,[9],734 nM (active)
same,EC50,[10],11100 nM (inconclusive)
same,AC50,[11],217 nM (active)
same,AC50,[12],1490 nM (active)
same,AC50,[13],3760 nM (active)
same,EC50,[14],430 nM (active)
same,EC50,[15],208 nM (active)
same,AC50,[16],6580 nM (active)
same,AC50,[17],8910 nM (active)
same,AC50,[18],5690 nM (active)
same,AC50,[19],199 nM (active)
same,AC50,[20],337 nM (active)
same,AC50,[21],1830 nM (active)
same,AC50,[22],1770 nM (active)
same,IC50,[23],> 80000 nM (inactive)
same,AC50,[24],118 nM (active)
same,AC50,[25],3450 nM (active)
Cc1nc2ccccc2c(=O)n1NC(=O)c1ccc(Cl)c([N+](=O)[O-])c1,AC50,[26],16800 nM (active)
COc1ccc(-c2noc(CCC(=O)N3CCC(c4cc(C)ccc4C)CC3)n2)cc1,EC50,[27],> 67500 nM (inactive)
same,IC50,[28],> 67500 nM (inactive)
COc1ccc(S(=O)(=O)Nc2ccc3c(c2)CC(=O)N([C@H](C)CO)C[C@H](C)[C@H](CN(C)Cc2ccc(C(=O)Nc4ccccc4N)cc2)O3)cc1,AC50,[29],23600 nM (active)
same,AC50,[30],3190 nM (active)
same,AC50,[31],29700 nM (active)
same,AC50,[32],24600 nM (active)
CC(C)(C)OC(=O)NCCOCCOCCOc1ccc(N(C(=O)CCl)C(C(=O)NCCc2ccccc2)c2cccs2)cc1Cl (stereo unspecified),AC50,[33],21400 nM (active)
same,AC50,[34],1450 nM (active)
same,AC50,[35],21200 nM (active)
same,AC50,[36],1790 nM (active)
same,AC50,[37],492 nM (active)
same,AC50,[38],675 nM (active)
same,AC50,[39],126 nM (active)
same,AC50,[40],643 nM (active)
same,AC50,[41],177 nM (active)
same,AC50,[42],738 nM (active)
same,AC50,[43],156 nM (active)
COc1ccc(CCNc2c3ccccc3nc3ccccc23)cc1,IC50,[44],1100 nM (active)
COc1cccc(CN2CC(C(=O)NCCc3cn4cccnc4n3)CCC2=O)c1 (stereo unspecified),EC50,[45],23900 nM (inactive)
CCOc1ccccc1NC(=O)c1cccc(NC(=O)C2CCOC2)c1 (stereo unspecified),IC50,[46],1330 nM (active)
